The test system of series [1] is Kollagen-Neusynthese. The experiment in a line: Collagen neosynthesis: P1NP secreted into the medium of a fibroblast / 3D epidermis model co-culture. In kind it is cell-based. To be noted: for P1NP: Co-Kultur-System, P1NP in medium, unbehandelt = 107. The text has this:
Ein in der Kosmetik relevanter Parameter für die Anti-Aging-Leistung eines Produktes ist die Induktion der Kollagen-Neusynthese. […] Zum Nachweis der Kollagen-Neusynthese wurde ein Co-Kultur-System verwendet, das aus einer zweidimensionalen Fibroblasten-Kultur besteht, auf die in einem Insert ein dreidimensionales Epidermismodell aufgesetzt wurde. Über das Nährmedium kann ein Stoffaustausch zwischen den Fibroblasten und den Keratinocyten des Epidermismodells erfolgen. […] Als Kontrollen für die Syntheseinduktion wurden Retinsäure und Retinol eingesetzt.

In series [2] the test system is CYP26A1. The experiment in a line: RAMBA activity: change in CYP26A1 marker expression by qPCR in keratinocytes incubated with substance plus retinoic acid. From the text:
Verschiedene kosmetische Wirkstoffe, die zur Stoffklasse der Azole gerechnet werden können, wurden auf eine mögliche RAMBA-Aktivität hin untersucht. Zu diesem Zweck wurden humane Keratinocyaten für 16 Stunden mit den entsprechenden Substanzen in Kombination mit Retinsäure inkubiert und anschließend mittels qPCR die Expressionsänderung des Markers CYP26A1 verfolgt. Das Enzym CYP26A1 bewirkt die Metabolisierung der Retinsäure und wird durch die Retinsäure selber induziert, wodurch eine Feedbak-Regulation der Retinsäurekonzentration in der Zelle ermöglicht wird. […] Tabelle 1

On to `CC1=NN(c2ccccc2)C(=O)C1` [3-Methyl-1-phenyl-5-pyrazolon], for which the P1NP in series [1] (0,01%) was found to be 129 µg/mL. Moreover, the “Induktion der Kollagensynthese” value in series [1] (result in words on Tabelle 2) is listed as “zeigen eine Induktion der Kollagensynthese”. Besides, the “Rel. Expression CYP26A1” value in series [2] (0,01% in combination with Retinsäure (RA, 10nM), humane Keratinocyten, 16 Stunden, qPCR, ethanol control = 1,0) is on record as 1,3. Moreover, the RAMBA-Aktivität result in series [2] (comparison with Ketokonazol, result in words on Tabelle 1) was “in etwa die gleiche RAMBA-Aktivität wie Ketokonazol”. For the same compound, the “Induktion von CYP26A1” value in series [2] (in combination with Retinsäure, result in words on Tabelle 1) is “deutlich vermindert”.

In series [1] (5µM), `CC1=C(/C=C/C(C)=C/C=C/C(C)=C/CO)C(C)(C)CCC1` [Retinol, reference compound] showed a P1NP of 146 µg/mL.

In series [1] (5µM), `CC1=C(/C=C/C(C)=C/C=C/C(C)=C/C(=O)O)C(C)(C)CCC1` [Retinsäure, reference compound] showed a P1NP of 200 µg/mL. For the same compound, the “Rel. Expression CYP26A1” value in series [2] (keratinocytes, 16 h, 0.01 µM) is reported as 37,6.

The values above are taken from EP2601931A2, “Cosmetic use of 3-methyl-1-phenyl-5-pyrazolon” (Henkel AG&Co. KGAA, priority 2011, dated 2013).
